What was measured:
[1] = system: rat spinal nerve ligation (SNL)/Chung model of neuropathic pain; test: Spinal nerve ligation (SNL)/Chung model, tactile allodynia, electronic von Frey test on lesioned paw; format: in vivo
Experimental: (§1) Objective: The efficacy of Compound A was assessed using the rat spinal nerve ligation (SNL)/Chung model of neuropathic pain. The SNL model in rats was developed as described previously (Chung J M, Kim H K, Chung K. “Segmental spinal nerve ligation model of neuropathic pain.” Methods Mol. Med. 99 (2004) 35-45).
(§2) Study Design. Briefly, on Day 0, von Frey and cold plate tests were used for baseline measurements of tactile and cold allodynia respectively. Post-baseline measurements, rats (171-209 g male Sprague Dawley) were anesthetized and an incision at the L4-S2 level was performed to expose the left L5 nerve. A ligature was tied tightly around the L5 nerve (Chung et al.; R. Dost et al., “The anti-hyperalgesic activity of Retigabine is mediated by KCNQ potassium channel activation.” Naunyn-Schmiedeberg's Arch. Pharmacol. 369 (2004) 382-390; Gordon Blackburn-Munro et al., “The anticonvulsant retigabine attenuates nociceptive behaviors in rat models of persistent and neuropathic pain.” Eur. J Pharmacol. 460 (2003) 109-116; and Wu Y J et al., “Discovery of (S,E)-3-(2-fluorophenyl)-N-(1-(3-(pyridin-3-yloxy)phenyl)ethyl)-acrylamide as a potent and efficacious KCNQ2 (Kv7.2) opener for the treatment of neuropathic pain.” Bioorg Med. Chem. Lett. 23 (2013) 6188-91). The wound was then sutured and the rats were allowed to recover. On Day 13, post-surgery baselines for tactile and cold allodynia were measured to verify neuropathic pain. Animals were assigned to treatment groups based on the post-surgery baseline score.
(§3) Dosing: For efficacy testing, Compound A was dosed orally once a day for 5 consecutive days from Day 14-18.
Rats were placed under an inverted acrylic plastic box on a grid floor. The tip of an electronic von Frey probe was then applied with increasing force to the surgery hind paw and the force required to induce paw-withdrawal was automatically recorded. The procedure was carried out 3 times and the mean paw withdrawal force was calculated. The experimenter was double blinded to treatment.

[2] = system: rat spinal nerve ligation (SNL)/Chung model of neuropathic pain; test: Spinal nerve ligation (SNL)/Chung model, thermal allodynia, cold plate test on lesioned paw; format: in vivo
Experimental: as §1
Study Design. Briefly, on Day 0, von Frey and cold plate tests were used for baseline measurements of tactile and cold allodynia respectively. Post-baseline measurements, rats (171-209 g male Sprague Dawley) were anesthetized and an incision at the L4-S2 level was performed to expose the left L5 nerve. […] The wound was then sutured and the rats were allowed to recover. On Day 13, post-surgery baselines for tactile and cold allodynia were measured to verify neuropathic pain. Animals were assigned to treatment groups based on the post-surgery baseline score.
as §3
The cold plate apparatus was maintained at 4±1° C. and was surrounded by an acrylic glass enclosure. Rats were placed on the plate for a period of 5 minutes. The latency to 1st paw-withdrawal, total number of paw withdrawals, and total duration of withdrawal responses were recorded for the surgery hind paw.

[3] = Body weight of SNL rats over the duration of testing; format: in vivo, rat
Experimental: as §2, §3

[4] = Day 14, test 1 h after administration, 128 mg/kg p.o.
[5] = Day 18, test 1 h after administration, 128 mg/kg p.o. once on Day 14 and on Day 18
[6] = Day 18 at 2 h, 20 mg/kg p.o. once daily Day 14-18

CN1CC[C@]23c4c5ccc(O)c4O[C@H]2[C@@H](O)C=C[C@H]3[C@H]1C5.Cl [Morphine, Morphine hydrochloride, reference compound]
Force inducing paw-withdrawal (g), Delta from baseline compared with Vehicle (p.o.), Δ [1, 4]: +27.4 g
Force inducing paw-withdrawal (g), Delta from baseline, Mean ± s.e.m. [1, 4]: +27.7 ± 5.6 g
Force inducing paw-withdrawal (g), Mean ± s.e.m. [1, 4]: 50.6 ± 5.0 g
Force inducing paw-withdrawal (g), Delta from baseline compared with Vehicle (p.o.), Δ [1, 5]: +24.3 g
Force inducing paw-withdrawal (g), Delta from baseline, Mean ± s.e.m. [1, 5]: +27.1 ± 4.6 g
Force inducing paw-withdrawal (g), Mean ± s.e.m. [1, 5]: 50.0 ± 4.5 g
Latency to first paw-withdrawal (s), Mean ± s.e.m. [2, 4]: 201.3 ± 35.8 s
Latency to first paw-withdrawal, compared with Vehicle (p.o.), Δ% [2, 4]: +55%
Number of withdrawal responses, Mean ± s.e.m. [2, 4]: 7.9 ± 2.8
Number of withdrawal responses, compared with Vehicle (p.o.), Δ% [2, 4]: −22%
Latency to first paw-withdrawal (s), Mean ± s.e.m. [2, 5]: 235.8 ± 33.2 s
Latency to first paw-withdrawal, compared with Vehicle (p.o.), Δ% [2, 5]: +150%
Number of withdrawal responses, Mean ± s.e.m. [2, 5]: 4.6 ± 2.8
Number of withdrawal responses, compared with Vehicle (p.o.), Δ% [2, 5]: −58%
Body weight (g) (mean ± s.e.m.) ([3]; Day 14, 128 mg/kg p.o. once on Day 14 and on Day 18): 295.9 ± 4.6 g
Body weight (g) (mean ± s.e.m.) ([3]; Day 15, 128 mg/kg p.o. once on Day 14 and on Day 18): 312.8 ± 5.5 g
Body weight (g) (mean ± s.e.m.) ([3]; Day 16, 128 mg/kg p.o. once on Day 14 and on Day 18): 302.0 ± 5.4 g
Body weight (g) (mean ± s.e.m.) ([3]; Day 17, 128 mg/kg p.o. once on Day 14 and on Day 18): 298.9 ± 5.4 g
Body weight (g) (mean ± s.e.m.) ([3]; Day 18, 128 mg/kg p.o. once on Day 14 and on Day 18): 306.7 ± 5.2 g

CCOC(=O)Nc1ccc(NCc2ccc(F)cc2)cc1N [Retigabine, reference compound]
Force inducing paw-withdrawal (g), Delta from baseline compared with Vehicle (p.o.), Δ ([1]; Day 14 at 2 h, 20 mg/kg p.o.): +4.0 g
Force inducing paw-withdrawal (g), Delta from baseline, Mean ± s.e.m. ([1]; Day 14 at 2 h, 20 mg/kg p.o.): +4.0 ± 2.2 g
Force inducing paw-withdrawal (g), Mean ± s.e.m. ([1]; Day 14 at 2 h, 20 mg/kg p.o.): 26.5 ± 2.5 g
Force inducing paw-withdrawal (g), Delta from baseline compared with Vehicle (p.o.), Δ [1, 6]: +6.4 g
Force inducing paw-withdrawal (g), Delta from baseline, Mean ± s.e.m. [1, 6]: +9.2 ± 2.1 g
Force inducing paw-withdrawal (g), Mean ± s.e.m. [1, 6]: 31.8 ± 2.2 g
Latency to first paw-withdrawal (s), Mean ± s.e.m. ([2]; Day 14 at 2 h, 20 mg/kg p.o.): 272.7 ± 20.1 s
Latency to first paw-withdrawal, compared with Vehicle (p.o.), Δ% ([2]; Day 14 at 2 h, 20 mg/kg p.o.): +110%
Number of withdrawal responses, Mean ± s.e.m. ([2]; Day 14 at 2 h, 20 mg/kg p.o.): 1.5 ± 1.3
Number of withdrawal responses, compared with Vehicle (p.o.), Δ% ([2]; Day 14 at 2 h, 20 mg/kg p.o.): −85%
Total duration of withdrawal responses (s), Mean ± s.e.m. ([2]; Day 14 at 2 h, 20 mg/kg p.o.): 0.3 ± 0.3 s
Total duration of withdrawal responses, compared with Vehicle (p.o.), Δ% ([2]; Day 14 at 2 h, 20 mg/kg p.o.): −86%
Latency to first paw-withdrawal (s), Mean ± s.e.m. [2, 6]: 209.3 ± 36.1 s
Latency to first paw-withdrawal, compared with Vehicle (p.o.), Δ% [2, 6]: +122%
Number of withdrawal responses, Mean ± s.e.m. [2, 6]: 3.4 ± 1.3
Number of withdrawal responses, compared with Vehicle (p.o.), Δ% [2, 6]: −69%
Total duration of withdrawal responses (s), Mean ± s.e.m. [2, 6]: 27.3 ± 23.5 s
Total duration of withdrawal responses, compared with Vehicle (p.o.), Δ% [2, 6]: +153%
Body weight (g) (mean ± s.e.m.) ([3]; Day 14, 20 mg/kg p.o. once daily Day 14-18): 300.8 ± 4.8 g
Body weight (g) (mean ± s.e.m.) ([3]; Day 15, 20 mg/kg p.o. once daily Day 14-18): 312.6 ± 5.1 g
Body weight (g) (mean ± s.e.m.) ([3]; Day 16, 20 mg/kg p.o. once daily Day 14-18): 321.1 ± 5.2 g
Body weight (g) (mean ± s.e.m.) ([3]; Day 17, 20 mg/kg p.o. once daily Day 14-18): 330.6 ± 5.3 g
Body weight (g) (mean ± s.e.m.) ([3]; Day 18, 20 mg/kg p.o. once daily Day 14-18): 336.8 ± 5.7 g

Reference: patent US20240342156A1, “METHODS FOR TREATING PAIN” (Xenon Pharmaceuticals Inc., priority 2019, published 2024)
